Values after ≈ are worked out from the molar mass of the structure shown.
What was measured:
[1] = system: MRSA KS1; assay: MIC, broth microdilution, MRSA KS1; format: cell-based, Staphylococcus aureus; conditions: for MIC-fold improvement vs. vancomycin: MRSA KS1, ratio of MIC of vancomycin and MIC of analogue; for MIC: Staphylococcus aureus MRSA KS1, read-out: MIC
Protocol: (§1) The minimum inhibitory concentration (MIC) was determined using the broth microdilution method according to the antimicrobial susceptibility testing standards of the clinical and laboratory standards institute ([Clinical and Laboratory Standards Institute [CLSI], 2012]). Ultrapure water and non-inoculated broth were used as controls. In one case, a final concentration of 10 μM vancomycin was included with the vancomycin analog or control antibiotic.

[2] = system: S. aureus VRSA; assay: MIC, broth microdilution, vancomycin-resistant S. aureus (VRSA); format: cell-based, Staphylococcus aureus; conditions: for MIC: Staphylococcus aureus VRSA, read-out: MIC; for MIC-fold improvement vs. vancomycin: VRSA, ratio of MIC of vancomycin and MIC of analogue
Protocol: as §1

[3] = system: E. faecalis VRE 37; assay: MIC, broth microdilution, vancomycin-resistant E. faecalis VRE 37 (VanA); format: cell-based, Enterococcus faecalis; conditions: for MIC: Enterococcus faecalis VRE 37 (vancomycin-resistant), read-out: MIC; for MIC-fold improvement vs. vancomycin: VRE 37, ratio of MIC of vancomycin and MIC of analogue
Protocol: as §1

[4] = system: E. faecalis VRE 53; assay: MIC, broth microdilution, vancomycin-resistant E. faecalis VRE 53 (VanA); format: cell-based, Enterococcus faecalis; conditions: for MIC: Enterococcus faecalis VRE 53 (vancomycin-resistant), read-out: MIC; for MIC-fold improvement vs. vancomycin: VRE 53, ratio of MIC of vancomycin and MIC of analogue
Protocol: as §1

[5] = system: human T-lymphocyte (CEM) cells; assay: Cytostatic activity, CEM cell proliferation; format: cell-based; conditions: mean ± SD of three experiments; highest concentration tested 250 µM; 3 days; read-out: Toxicity (IC50) CEM
Protocol: (§2) Murine leukemia (L1210), human T-lymphocyte (CEM) and the human cervix carcinoma (HeLa) cell line were suspended at 300,000–500,000 cells/mL of culture medium, and 100 μL of a cell suspension was added to 100 μL of an appropriate dilution of the test compounds in wells of 96-well microtiter plates. After incubation at 37°C for 2 (L1210), 3 (CEM), or 4 (HeLa) days, the cell number was determined using a Coulter counter. The IC50 was defined per cell type as the compound concentration required to inhibit cell proliferation by 50% compared to the negative control ([Glowacka et al., 2017]).

[6] = system: L1210, CEM and HeLa cell lines; assay: Cytostatic activity, average or summary over L1210, CEM and HeLa; format: cell-based; conditions: average of L1210, CEM and HeLa; read-out: Toxicity (IC50) Average
Protocol: as §2

[7] = system: E. faecalis VSE 1; assay: MIC, broth microdilution, vancomycin-sensitive E. faecalis (VSE 1); format: cell-based, Enterococcus faecalis; conditions: for MIC: Enterococcus faecalis VSE 1 (vancomycin-sensitive), read-out: MIC; for MIC-fold improvement vs. vancomycin: VSE 1, ratio of MIC of vancomycin and MIC of analogue
Protocol: as §1

[8] = system: E. faecalis VRE 29; assay: MIC, broth microdilution, vancomycin-resistant E. faecalis VRE 29 (VanA); format: cell-based, Enterococcus faecalis; conditions: for MIC: Enterococcus faecalis VRE 29 (vancomycin-resistant), read-out: MIC; for MIC-fold improvement vs. vancomycin: VRE 29, ratio of MIC of vancomycin and MIC of analogue
Protocol: as §1

[9] = system: S. aureus VISA/HIP5827; assay: MIC, broth microdilution, vancomycin-intermediate S. aureus VISA HIP5827; format: cell-based, Staphylococcus aureus; conditions: for MIC: Staphylococcus aureus VISA/HIP5827, read-out: MIC; for MIC-fold improvement vs. vancomycin: VISA/HIP5827, ratio of MIC of vancomycin and MIC of analogue
Protocol: as §1

[10] = system: MRSA KS2; assay: MIC, broth microdilution, MRSA KS2; format: cell-based, Staphylococcus aureus; conditions: for MIC-fold improvement vs. vancomycin: MRSA KS2, ratio of MIC of vancomycin and MIC of analogue; for MIC: Staphylococcus aureus MRSA KS2, read-out: MIC
Protocol: as §1

[11] = system: S. aureus VSSA (ATCC 6538); assay: MIC, broth microdilution, vancomycin-sensitive S. aureus (VSSA/MSSA, ATCC 6538); format: cell-based, Staphylococcus aureus; conditions: for MIC: Staphylococcus aureus VSSA, read-out: MIC; for MIC-fold improvement vs. vancomycin: VSSA, ratio of MIC of vancomycin and MIC of analogue
Protocol: as §1

[12] = system: human cervix carcinoma (HeLa) cells; assay: Cytostatic activity, HeLa cell proliferation; format: cell-based; conditions: mean ± SD of three experiments; highest concentration tested 250 µM; 4 days; read-out: Toxicity (IC50) HeLa
Protocol: as §2

[13] = system: E. faecalis VRE 6; assay: MIC, broth microdilution, vancomycin-resistant E. faecalis VRE 6 (VanA); format: cell-based, Enterococcus faecalis; conditions: for MIC: Enterococcus faecalis VRE 6 (vancomycin-resistant), read-out: MIC; for MIC-fold improvement vs. vancomycin: VRE 6, ratio of MIC of vancomycin and MIC of analogue
Protocol: as §1

[14] = system: MRSA KS6; assay: MIC, broth microdilution, MRSA KS6; format: cell-based, Staphylococcus aureus; conditions: for MIC-fold improvement vs. vancomycin: MRSA KS6, ratio of MIC of vancomycin and MIC of analogue; for MIC: Staphylococcus aureus MRSA KS6, read-out: MIC
Protocol: as §1

[15] = system: Murine leukemia (L1210) cells; assay: Cytostatic activity, L1210 cell proliferation; format: cell-based; conditions: mean ± SD of three experiments; highest concentration tested 250 µM; 2 days; read-out: Toxicity (IC50) L1210
Protocol: as §2

[16] = system: MRSA KS89; assay: MIC, broth microdilution, MRSA KS89; format: cell-based, Staphylococcus aureus; conditions: for MIC-fold improvement vs. vancomycin: MRSA KS8, ratio of MIC of vancomycin and MIC of analogue; for MIC: Staphylococcus aureus MRSA KS8, read-out: MIC
Protocol: as §1

Row | Structure (SMILES) | MIC-fold improvement vs. vancomycin [1] | MIC [1] [µM] | MIC [2] [µM] | MIC-fold improvement vs. vancomycin [2] | MIC [3] [µM] | MIC [4] [µM] | MIC-fold improvement vs. vancomycin [4] | IC50 [5] [µM] | IC50 [6] [µM] | MIC [7] [µM] | MIC-fold improvement vs. vancomycin [7] | MIC [8] [µM] | MIC-fold improvement vs. vancomycin [8] | MIC [9] [µM] | MIC-fold improvement vs. vancomycin [9] | MIC-fold improvement vs. vancomycin [10] | MIC [10] [µM] | MIC [11] [µM] | MIC-fold improvement vs. vancomycin [11] | IC50 [12] [µM] | further results
1 | CNC(CC(C)C)C(=O)NC1C(=O)NC(CC(N)=O)C(=O)NC2C(=O)NC3C(=O)NC(C(=O)NC(C(=O)NCCCNC(=O)c4ccc(-c5ccc(-c6ccccc6)cc5)cc4)c4cc(O)cc(O)c4-c4cc3ccc4O)C(O)c3ccc(c(Cl)c3)Oc3cc2cc(c3OC2OC(CO)C(O)C(O)C2OC2CC(C)(N)C(O)C(C)O2)Oc2ccc(cc2Cl)C1O (stereo not shown) [Vanc-35] | 1 | 0.78 (≈ 1.37 µg/mL) | 1.56 (≈ 2.75 µg/mL) | 64 | 1.56 (≈ 2.75 µg/mL) | 6.25 (≈ 11 µg/mL) | 64 | 0.98 ± 0.06 | 7 | 0.20 (≈ 0.352 µg/mL) | 8 | 1.56 (≈ 2.75 µg/mL) | 256 | 0.05 (≈ 0.0881 µg/mL) | 128 | 2 | 0.39 (≈ 0.687 µg/mL) | 0.05 (≈ 0.0881 µg/mL) | 16 | 17 ± 2 | MIC-fold improvement vs. vancomycin [3]: 256; MIC [13]: 0.39 µM (≈ 0.687 µg/mL); MIC-fold improvement vs. vancomycin [13]: 513; MIC-fold improvement vs. vancomycin [14]: 4; MIC [14]: 0.20 µM (≈ 0.352 µg/mL); IC50 [15]: 4.1 ± 0.5 µM; MIC-fold improvement vs. vancomycin [16]: 4; MIC [16]: 0.20 µM (≈ 0.352 µg/mL)
2 | CN[C@H](CC(C)C)C(=O)N[C@H]1C(=O)N[C@@H](CC(N)=O)C(=O)N[C@H]2C(=O)N[C@H]3C(=O)N[C@H](C(=O)N[C@H](C(=O)NCCNC(=O)/C=C/c4ccc(NS(=O)(=O)c5ccc(Cl)cc5Cl)cc4)c4cc(O)cc(O)c4-c4cc3ccc4O)[C@H](O)c3ccc(c(Cl)c3)Oc3cc2cc(c3O[C@@H]2O[C@H](CO)[C@@H](O)[C@H](O)[C@H]2O[C@H]2C[C@](C)(N)[C@H](O)[C@H](C)O2)Oc2ccc(cc2Cl)[C@H]1O [Vanc-64] | 4 | 0.20 (≈ 0.369 µg/mL) | 0.39 (≈ 0.72 µg/mL) | 256 | 6.25 (≈ 11.5 µg/mL) | 12.5 (≈ 23.1 µg/mL) | 32 | 210 ± 56 | 187 | 0.39 (≈ 0.72 µg/mL) | 4 | 6.25 (≈ 11.5 µg/mL) | 64 | 0.78 (≈ 1.44 µg/mL) | 8 | 4 | 0.20 (≈ 0.369 µg/mL) | 0.39 (≈ 0.72 µg/mL) | 2 | 102 ± 39 | MIC-fold improvement vs. vancomycin [3]: 64; MIC [13]: 3.13 µM (≈ 5.78 µg/mL); MIC-fold improvement vs. vancomycin [13]: 64; MIC-fold improvement vs. vancomycin [14]: 4; MIC [14]: 0.20 µM (≈ 0.369 µg/mL); IC50 [15]: > 250 µM; MIC-fold improvement vs. vancomycin [16]: 2; MIC [16]: 0.39 µM (≈ 0.72 µg/mL)
3 | CN[C@H](CC(C)C)C(=O)N[C@H]1C(=O)N[C@@H](CC(N)=O)C(=O)N[C@H]2C(=O)N[C@H]3C(=O)N[C@H](C(=O)N[C@H](C(=O)NCCNC(=O)/C=C/c4cccc(OC)c4)c4cc(O)cc(O)c4-c4cc3ccc4O)[C@H](O)c3ccc(c(Cl)c3)Oc3cc2cc(c3O[C@@H]2O[C@H](CO)[C@@H](O)[C@H](O)[C@H]2O[C@H]2C[C@](C)(N)[C@H](O)[C@H](C)O2)Oc2ccc(cc2Cl)[C@H]1O [Vanc-23] | 1 | 0.78 (≈ 1.29 µg/mL) | 6.25 (≈ 10.3 µg/mL) | 16 | 25 (≈ 41.3 µg/mL) | 25 (≈ 41.3 µg/mL) | 16 | > 250 | > 250 | 0.39 (≈ 0.644 µg/mL) | 4 | 12.5 (≈ 20.6 µg/mL) | 32 | 0.78 (≈ 1.29 µg/mL) | 8 | 2 | 0.39 (≈ 0.644 µg/mL) | 0.39 (≈ 0.644 µg/mL) | 2 | > 250 | MIC-fold improvement vs. vancomycin [3]: 16; MIC [13]: 3.13 µM (≈ 5.17 µg/mL); MIC-fold improvement vs. vancomycin [13]: 64; MIC-fold improvement vs. vancomycin [14]: 1; MIC [14]: 0.78 µM (≈ 1.29 µg/mL); IC50 [15]: > 250 µM; MIC-fold improvement vs. vancomycin [16]: 1; MIC [16]: 0.78 µM (≈ 1.29 µg/mL)
4 | CNC(CC(C)C)C(=O)NC1C(=O)NC(CC(N)=O)C(=O)NC2C(=O)NC3C(=O)NC(C(=O)NC(C(=O)NCCCNC(=O)c4ccc(C(F)(F)F)cc4)c4cc(O)cc(O)c4-c4cc3ccc4O)C(O)c3ccc(c(Cl)c3)Oc3cc2cc(c3OC2OC(CO)C(O)C(O)C2OC2CC(C)(N)C(O)C(C)O2)Oc2ccc(cc2Cl)C1O (stereo not shown) [Vanc-32] | 2 | 0.39 (≈ 0.654 µg/mL) | 6.25 (≈ 10.5 µg/mL) | 16 | 25 (≈ 41.9 µg/mL) | 50 (≈ 83.9 µg/mL) | 8 | 200 ± 12 | 157 | 0.39 (≈ 0.654 µg/mL) | 4 | 12.5 (≈ 21 µg/mL) | 32 | 0.78 (≈ 1.31 µg/mL) | 8 | 2 | 0.39 (≈ 0.654 µg/mL) | 0.78 (≈ 1.31 µg/mL) | 1 | 106 ± 2 | MIC-fold improvement vs. vancomycin [3]: 16; MIC [13]: 3.13 µM (≈ 5.25 µg/mL); MIC-fold improvement vs. vancomycin [13]: 64; MIC-fold improvement vs. vancomycin [14]: 2; MIC [14]: 0.39 µM (≈ 0.654 µg/mL); IC50 [15]: 164 ± 46 µM; MIC-fold improvement vs. vancomycin [16]: 2; MIC [16]: 0.39 µM (≈ 0.654 µg/mL)
5 | CNC(CC(C)C)C(=O)NC1C(=O)NC(CC(N)=O)C(=O)NC2C(=O)NC3C(=O)NC(C(=O)NC(C(=O)NCCNC(=O)C=Cc4ccc(NS(=O)(=O)c5ccc(Cl)cc5)cc4)c4cc(O)cc(O)c4-c4cc3ccc4O)C(O)c3ccc(c(Cl)c3)Oc3cc2cc(c3OC2OC(CO)C(O)C(O)C2OC2CC(C)(N)C(O)C(C)O2)Oc2ccc(cc2Cl)C1O (stereo not shown) [Vanc-62] | 4 | 0.20 (≈ 0.362 µg/mL) | 0.78 (≈ 1.41 µg/mL) | 128 | 12.5 (≈ 22.6 µg/mL) | 25 (≈ 45.3 µg/mL) | 16 | ≥ 250 | 195 | 0.39 (≈ 0.706 µg/mL) | 4 | 6.25 (≈ 11.3 µg/mL) | 64 | 1.56 (≈ 2.83 µg/mL) | 4 | 4 | 0.20 (≈ 0.362 µg/mL) | 0.39 (≈ 0.706 µg/mL) | 2 | 86 ± 42 | MIC [13]: 3.13 µM (≈ 5.67 µg/mL); MIC-fold improvement vs. vancomycin [13]: 64; MIC-fold improvement vs. vancomycin [14]: 2; MIC [14]: 0.39 µM (≈ 0.706 µg/mL); IC50 [15]: > 250 µM; MIC-fold improvement vs. vancomycin [16]: 2; MIC [16]: 0.39 µM (≈ 0.706 µg/mL)

From publication PMC6001238, “Iterative Chemical Engineering of Vancomycin Leads to Novel Vancomycin Analogs With a High in Vitro Therapeutic Index” (Frontiers in Microbiology, 2018)
